In the experiment the test system is σ1 receptor and the μ-opiod receptor. Briefly: μ and σ1 dual binding: combined class from the Ki of both radioligand assays. Further details: species or system human; key to μ and σ1 dual binding: +: Both Ki-μ and Ki-σ1>=500 nM; ++: One Ki<500 nM while the other Ki is >=500 nM; +++: Both Ki-μ and Ki-σ1<500 nM; ++++: Both Ki-μ and Ki-σ1<100 nM. Particulars: transfected HEK-293 membranes (σ1), transfected CHO-K1 cell membranes (μ); for μ and σ1 dual binding: combined class for Ki-μ and Ki-σ1. The method, then:
To investigate binding properties of σ1 receptor ligands to human σ1 receptor, transfected HEK-293 membranes and [^3H](+)-pentazocine (Perkin Elmer, NET-1056), as the radioligand, were used. The assay was carried out with 7 μg of membrane suspension, 5 nM of [^3H](+)-pentazocine in either absence or presence of either buffer or 10 μM Haloperidol for total and non-specific binding, respectively. Binding buffer contained Tris-HCl 50 mM at pH 8. Plates were incubated at 37° C. for 120 minutes. After the incubation period, the reaction mix was then transferred to MultiScreen HTS, FC plates (Millipore), filtered and plates were washed 3 times with ice-cold 10 mM Tris-HCL (pH7.4). Filters were dried and counted at approximately 40% efficiency in a MicroBeta scintillation counter (Perkin-Elmer) using EcoScint liquid scintillation cocktail
To investigate binding properties of mu-opioid receptor ligands to human μ-opioid receptor, transfected CHO-K1 cell membranes and [^3H]-DAMGO (Perkin Elmer, ES-542-C), as the radioligand, were used. The assay was carried out with 20 μg of membrane suspension, 1 nM of [^3H]-DAMGO in either absence or presence of either buffer or 10 μM Naloxone for total and non-specific binding, respectively. Binding buffer contained Tris-HCl 50 mM, MgCl2 5 mM at pH 7.4. Plates were incubated at 27° C. for 60 minutes. After the incubation period, the reaction mix was then transferred to MultiScreen HTS, FC plates (Millipore), filtered and plates were washed 3 times with ice-cold 10 mM Tris-HCL (pH 7.4). Filters were dried and counted at approximately 40% efficiency in a MicroBeta scintillation counter (Perkin-Elmer) using EcoScint liquid scintillation cocktail.
The following scale as been adopted for representing the binding to the σ1 receptor and the μ-opiod receptor expressed as Ki: • + Both Ki-μ and Ki-σ1>=500 nM • ++ One Ki<500 nM while the other Ki is >=500 nM • +++ Both Ki-μ and Ki-σ1<500 nM • ++++ Both Ki-μ and Ki-σ1<100 nM

Bounds are passed on as bounds.

Consider `Oc1cccc(C2CCN(Cc3cn([C@@H]4CCC[C@H]4O)nn3)CC2)c1` (racemic) [Example 5, (±)-(trans)-3-(1-((1-(2-hydroxycyclopentyl)-1H-1,2,3-triazol-4-yl)methyl)piperidin-4-yl)phenol], for which the “μ and σ1 dual binding” value is given as “++”.
On the same count and under the same terms, for `CS(=O)(=O)Nc1cccc(C2CCN(Cc3cn([C@@H]4c5ccccc5C[C@H]4O)nn3)CC2)c1` (racemic) [Example 70, (±)-(trans)-N-(3-(1-((1-(2-hydroxy-2,3-dihydro-1H-inden-1-yl)-1H-1,2,3-triazol-4-yl)methyl)piperidin-4-yl)phenyl)methanesulfonamide] the value was “++”.
`CC(C)S(=O)(=O)Nc1cccc([C@@H]2CCN(Cc3cn(-c4ccccc4)nn3)C[C@@H]2O)c1` (racemic) [Example 115, N-(3-((3R,4S)-3-hydroxy-1-((1-phenyl-1H-1,2,3-triazol-4-yl)methyl)piperidin-4-yl)phenyl)propane-2-sulfonamide]: the Ki range for both μ and σ1 (dual-binding class) was < 500 nM.
Consider `CC(C)S(=O)(=O)Nc1cccc([C@H]2CCN(Cc3cn(-c4ccccc4)nn3)C[C@H]2O)c1` (racemic) [Example 127, N-(3-((3S,4R)-3-hydroxy-1-((1-phenyl-1H-1,2,3-triazol-4-yl)methyl)piperidin-4-yl)phenyl)propane-2-sulfonamide], for which the “μ and σ1 dual binding” value is given as “++”.
For `OC[C@@H](c1ccccc1)n1cc(CN2CCC(c3cccc(O)c3)CC2)nn1` (stereo in doubt) [Example 149, (R)-3-(1-((1-(2-hydroxy-1-phenylethyl)-1H-1,2,3-triazol-4-yl)methyl)piperidin-4-yl)phenol], the Ki range for both μ and σ1 (dual-binding class) is < 500 nM.
For `OC[C@H](c1ccccc1)n1cc(CN2CCC(c3cccc(O)c3)CC2)nn1` (stereo in doubt) [Example 150, (S)-3-(1-((1-(2-hydroxy-1-phenylethyl)-1H-1,2,3-triazol-4-yl)methyl)piperidin-4-yl)phenol], the Ki range for both μ and σ1 (dual-binding class) is < 500 nM.
Same read-out and setting: to `CC(C)S(=O)(=O)Nc1cccc(C2CCN(Cc3cn(-c4ccccc4)nn3)CC2)c1` [Example 1, N-(3-(1-((1-phenyl-1H-1,2,3-triazol-4-yl)methyl)piperidin-4-yl)phenyl)propane-2-sulfonamide] belongs < 100 nM.
Same read-out and setting: to `Oc1cccc(C2CCN(Cc3cn(-c4ccccc4)nn3)CC2)c1` [Example 2, 3-(1-((1-phenyl-1H-1,2,3-triazol-4-yl)methyl)piperidin-4-yl)phenol] belongs < 100 nM; to `CCCn1cc(CN2CCC(c3cccc(O)c3)CC2)nn1` [Example 3, 3-(1-((1-propyl-1H-1,2,3-triazol-4-yl)methyl)piperidin-4-yl)phenol], < 500 nM; to `Oc1cccc(C2CCN(Cc3cn(Cc4ccccc4F)nn3)CC2)c1` [Example 4, 3-(1-((1-(2-fluorobenzyl)-1H-1,2,3-triazol-4-yl)methyl)piperidin-4-yl)phenol], < 100 nM.
On the same count and under the same terms, for `NC(=O)c1cccc(C2CCN(Cc3cn(-c4ccccc4)nn3)CC2)c1` [Example 6, 3-(1-((1-phenyl-1H-1,2,3-triazol-4-yl)methyl)piperidin-4-yl)benzamide] the value was < 500 nM; for `CCC(=O)Nc1cccc(C2CCN(Cc3cn(-c4ccccc4)nn3)CC2)c1` [Example 7, N-(3-(1-((1-phenyl-1H-1,2,3-triazol-4-yl)methyl)piperidin-4-yl)phenyl)propionamide], < 500 nM; for `Oc1cccc(C2CCN(Cc3cn(Cc4ccccc4)nn3)CC2)c1` [Example 8, 3-(1-((1-benzyl-1H-1,2,3-triazol-4-yl)methyl)piperidin-4-yl)phenol], < 100 nM.
In the case of `CC(=O)Nc1cccc(C2CCN(Cc3cn(-c4ccccc4)nn3)CC2)c1` [Example 9, N-(3-(1-((1-phenyl-1H-1,2,3-triazol-4-yl)methyl)piperidin-4-yl)phenyl)acetamide], the Ki range for both μ and σ1 (dual-binding class) is < 500 nM.
Still for that read-out and setting: to `Oc1cccc(C2CCN(Cc3cn(-c4cccnc4)nn3)CC2)c1` [Example 10, 3-(1-((1-(pyridin-3-yl)-1H-1,2,3-triazol-4-yl)methyl)piperidin-4-yl)phenol] belongs < 500 nM.
Consider `c1ccc(-n2cc(CN3CCC(c4cccc5[nH]cnc45)CC3)nn2)cc1` [Example 11, 4-(1-((1-phenyl-1H-1,2,3-triazol-4-yl)methyl)piperidin-4-yl)-1H-benzo[d]imidazole], for which the “μ and σ1 dual binding” value is “++”.
The same measure, in the same setting: to `Oc1ccc(C(F)(F)F)c(C2CCN(Cc3cn(-c4ccccc4)nn3)CC2)c1` [Example 12, 3-(1-((1-phenyl-1H-1,2,3-triazol-4-yl)methyl)piperidin-4-yl)-4-(trifluoromethyl)phenol] belongs “++”; to `O=c1[nH]c2cccc(C3CCN(Cc4cn(-c5ccccc5)nn4)CC3)c2[nH]1` [Example 13, 4-(1-((1-phenyl-1H-1,2,3-triazol-4-yl)methyl)piperidin-4-yl)-1H-benzo[d]imidazol-2(3H)-one], “++”.
As to `Oc1cccc(C2CCN(Cc3cn(-c4ccncc4)nn3)CC2)c1` [Example 14, 3-(1-((1-(pyridin-4-yl)-1H-1,2,3-triazol-4-yl)methyl)piperidin-4-yl)phenol], the Ki range for both μ and σ1 (dual-binding class) was < 500 nM.
In the case of `Oc1cccc(C2CCN(Cc3cn([C@@H]4c5ccccc5C[C@H]4O)nn3)CC2)c1` [Example 15, (1R,2R)-1-(4-((4-(3-hydroxyphenyl)piperidin-1-yl)methyl)-1H-1,2,3-triazol-1-yl)-2,3-dihydro-1H-inden-2-ol], the Ki range for both μ and σ1 (dual-binding class) is < 500 nM.
On the same count and under the same terms, for `CS(=O)(=O)Nc1cccc(C2CCN(Cc3cn(-c4ccc(F)cc4)nn3)CC2)c1` [Example 16, N-(3-(1-((1-(4-fluorophenyl)-1H-1,2,3-triazol-4-yl)methyl)piperidin-4-yl)phenyl)methanesulfonamide] the value was < 500 nM.
In the case of `CNS(=O)(=O)c1cccc(C2CCN(Cc3cn(-c4ccccc4)nn3)CC2)c1` [Example 17, N-methyl-3-(1-((1-phenyl-1H-1,2,3-triazol-4-yl)methyl)piperidin-4-yl)benzenesulfonamide], the “μ and σ1 dual binding” value was “++”.
As to `CS(=O)(=O)Nc1ccc(F)c(C2CCN(Cc3cn(-c4ccccc4)nn3)CC2)c1` [Example 18, N-(4-fluoro-3-(1-((1-phenyl-1H-1,2,3-triazol-4-yl)methyl)piperidin-4-yl)phenyl)methanesulfonamide], the Ki range for both μ and σ1 (dual-binding class) was < 100 nM.
Still for that read-out and setting: to `Oc1cccc(C2CCN(Cc3cn(C4CCCCC4)nn3)CC2)c1` [Example 19, 3-(1-((1-cyclohexyl-1H-1,2,3-triazol-4-yl)methyl)piperidin-4-yl)phenol] belongs < 100 nM.
Consider `CS(=O)(=O)Nc1ccc(C(F)(F)F)c(C2CCN(Cc3cn(-c4ccccc4)nn3)CC2)c1` [Example 20, N-(3-(1-((1-phenyl-1H-1,2,3-triazol-4-yl)methyl)piperidin-4-yl)-4-(trifluoromethyl)phenyl)methanesulfonamide], for which the “μ and σ1 dual binding” value was “++”.
As for `c1ccc(-n2cc(CN3CCC(c4ccc5nc[nH]c5c4)CC3)nn2)cc1` [Example 21, 6-(1-((1-phenyl-1H-1,2,3-triazol-4-yl)methyl)piperidin-4-yl)-1H-benzo[d]imidazole], the Ki range for both μ and σ1 (dual-binding class) was < 500 nM.
Still for that read-out and setting: to `CS(=O)(=O)Nc1cccc(C2CCN(Cc3cn(C4CCCCC4)nn3)CC2)c1` [Example 22, N-(3-(1-((1-cyclohexyl-1H-1,2,3-triazol-4-yl)methyl)piperidin-4-yl)phenyl)methanesulfonamide] belongs < 500 nM; to `CC(C)n1cc(CN2CCC(c3cccc(O)c3)CC2)nn1` [Example 23, 3-(1-((1-isopropyl-1H-1,2,3-triazol-4-yl)methyl)piperidin-4-yl)phenol], < 500 nM.
Still for that read-out and setting: to `CC(C)Cn1cc(CN2CCC(c3cccc(O)c3)CC2)nn1` [Example 25, 3-(1-((1-isobutyl-1H-1,2,3-triazol-4-yl)methyl)piperidin-4-yl)phenol] belongs < 100 nM.
As for `c1ccc(-n2cc(CN3CCC(c4ccc5cn[nH]c5c4)CC3)nn2)cc1` [Example 26, 6-(1-((1-phenyl-1H-1,2,3-triazol-4-yl)methyl)piperidin-4-yl)-1H-indazole], the “μ and σ1 dual binding” value is reported as “++”.

(Values after patent US9981942B2, “Piperidine derivatives having multimodal activity against pain” (LABORATORIOS DEL DR. ESTEVE S.A., priority 2013, dated 2018).)
